According to US7994122B2, “Glucagon analogues” (Zealand Pharma A/S, priority 2007, dated 2011):
Where no end group is shown, it is not given here.

How the values were obtained:
[1] = administered separately; Dakin et al. 2001; cited from earlier work
hGLP-1-R = target: T1, hGLP-1-R (Homo sapiens, UniProt P43220); test: GLP-1 receptor efficacy assay (cAMP) in HEK293 cells expressing hGLP-1-R; type: cell-based
T1 construct: expressed in transfected cells
Excerpt: The DNA encoding the Glucagon-R or the GLP-1-R was amplified by PCR using primers encoding terminal restriction sites for subcloning. The 5′-end primers additionally encoded a near Kozak consensus sequence to ensure efficient translation. The PCR products encoding the Glucagon-R or the GLP-1-R were subcloned into a mammalian expression vector. The fidelity of the DNA encoding the Glucagon-R and the GLP-1-R was confirmed by DNA sequencing. As the mammalian expression vector additionally encodes for G418 resistance, transfected cells may be selected by applying selection pressure with G418. […] 48 hr after transfection cells were seeded for limited dilution cloning and selected with 1 mg/ml G418 in the culture medium. […] One Glucagon-R expressing clone and one GLP-1-R expressing clone were chosen for compound profiling.
HEK293 cells expressing the hGlucagon-R, or hGLP-1-R are seeded at 40,000 cells per well in 96-well microtiter plates coated with 0.01% poly-L-lysine and grown for 1 day in culture in […] growth medium. On the day of analysis, growth medium is removed and the cells washed once with 200 μl Tyrode buffer. Cells are incubated in 100 μl Tyrode buffer containing increasing concentrations of test peptides, 100 μM IBMX, and 6 mM glucose for up 15 min at 37° C. The reaction is stopped by addition of 25 μl 0.5 M HCl and incubated on ice for 60 min. The cAMP content is estimated using the FlashPlate® cAMP kit from Perkin-Elmer. EC50 and relative efficacy are estimated by computer aided curve fitting.

[2] = Body weight in diet induced obese (DIO) mice; type: in vivo, C57BI/6J male mice; settings: HFD (DIO) mice
Protocol: Efficacious glucagon/GLP-1 receptor agonists are tested on 9-15 weeks old, 40 C57BI/6J male mice which have been kept on a High Fat Diet (HFD)—60% high-fat food (Cat. No. D12492: 20% protein, 20% carbohydrate, and 60% fat, 5.2 kcal/g; Research Diets, New Jersey, USA, for 4 weeks. The high-fat food contains soybean oil (25/773.85 g) and lard (245/773.85 g).
DIO-mice are treated with vehicle or co-agonists for 2-4 weeks by bolus administration (s.c.) twice daily. Body weight is monitored daily throughout the experiment. At the end of the experimental period animals are sacrificed, blood collected for analysis of glycated hemoglobin and a range of hormones and peptides involved in regulation of appetite, food intake, body weight, and energy balances. In addition, the epididymal/perigonadal fat pads and retroperitoneal fat (WAT) as well as the intrascapular Brown Adipose Tissue (BAT) are dissected out and weighed. […]
Following an acclimatization treatment with 100 μl vehicle (PBS) once a day for two weeks DIO-mice were treated with vehicle, control peptides or Compound 3 for 4 weeks by bolus administration (s.c.) twice daily. Body weight was monitored daily throughout the experiment. […]

T1 sequence (P43220 24-463): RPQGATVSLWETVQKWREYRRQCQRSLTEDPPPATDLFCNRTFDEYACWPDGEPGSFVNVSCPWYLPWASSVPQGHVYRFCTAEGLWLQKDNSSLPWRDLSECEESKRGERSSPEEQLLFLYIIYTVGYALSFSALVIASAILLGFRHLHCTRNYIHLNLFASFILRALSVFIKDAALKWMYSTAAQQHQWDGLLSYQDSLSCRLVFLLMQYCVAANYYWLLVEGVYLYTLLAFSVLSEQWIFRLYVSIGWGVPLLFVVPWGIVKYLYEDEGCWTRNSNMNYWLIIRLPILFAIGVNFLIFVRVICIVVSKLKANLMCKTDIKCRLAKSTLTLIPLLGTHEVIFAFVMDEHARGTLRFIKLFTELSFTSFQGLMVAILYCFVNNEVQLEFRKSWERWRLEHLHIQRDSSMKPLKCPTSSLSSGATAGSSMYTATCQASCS

Row | Substance | effect on food intake [1] | ratio (GluR / GLP1R EC values) (hGLP-1-R; first test) | EC50[Glu]/EC50[GLP-1] ratio (hGLP-1-R; re-testing) | EC50 (hGLP-1-R; re-testing, cAMP, HEK293 hGLP-1-R) | body weight gain ([2]; s.c. bolus 500 nmol/kg twice daily, 28 days, p<0.05 vs vehicle HFD) | weight reducing effect over time ([2]; s.c. twice daily, 4 weeks (FIG. 2))
1 | KRNRNNIA [IP-1, C-terminal octapeptide of oxyntomodulin] | fail to affect food intake | – | – | – | – | –
2 | H-HSQGTFTSDYSKYLDRARADDFVAWLKST-NH2 [Compound 3] | – | 1.27 | 2.13 | 0.23 nM | able to reduce body weight gain comparable to oxyntomodulin treatment | sustained over time comparable to oxyntomodulin treatment and significantly different from exendin-4 treatment
